Measurements: patent publication US20250289827A1, “MORPHIC FORMS OF A MUTANT BRAF DEGRADER AND METHODS OF MANUFACTURE THEREOF” (C4 THERAPEUTICS, INC., priority 2022, published 2025)

Tests used:
BCS / DCS classification = details: initial studies
Excerpt: Initial studies indicate Compound 1 is a Biopharmaceutics Classification System (BCS) Class II and a Developability Classification System (DCS) Class IIb molecule.

[1] = Plasma and brain pharmacokinetics in A375-luciferase intracranial model; parameters: species or system BALB/c nude mice; details: mouse, in vivo
Procedure: To determine the level of CNS and plasma exposure of Compound 1 compared to encorafenib, a separate pharmacokinetics/pharmacodynamics (PK/PD) study was conducted. Mice were inoculated with luciferase tagged A375 cells as stated above. The tumors were left to establish and expand for 14 days before the study. […] Samples from 3 mice per treatment group were collected at 1, 12, 24, and 48 hours. To test the plasma samples, the mice were anesthetized, and blood was collected into a tube with EDTA-K2, centrifuged, transferred to a fresh tube, and stored frozen. Following blood collection, the mice were perfused for fifteen minutes, decapitated, and the brain was collected and frozen. The harvested plasma and brain were processed for pharmacokinetics analysis by LC/MS/MS with a concentration range of 1-1,000 ng/mL and pharmacodynamics analysis by Western Blot. The concentrations of Compound 1 and encorafenib found in the plasma is shown in FIG. 42, and the concentration found in the brain is shown in FIG. 43.

[2] = Crystallization from hot saturated solutions by slow cooling; format: physicochemical; details: for Result: slow cooling
Procedure: About 50 mg of Compound 1 Form A was dissolved in the minimal amount of selected solvents at 50° C. Obtained solutions were filtered through a 0.45 μm syringe membrane filter. […] Samples without precipitates at 5° C. were further cooled to −20° C. Precipitates were collected by centrifugation filtration through a 0.45 μm nylon membrane filter at 14,000 rpm. Solid parts (wet cakes) were investigated by XRPD.
Obtained solutions were filtered through a 0.45 μm syringe membrane filter. […] Obtained suspensions were cooled to 5° C. at 0.1° C./min and kept at 5° C. for about 12 h. Precipitates were collected by centrifugation filtration through a 0.45 μm nylon membrane filter at 14,000 rpm. Solid parts (wet cakes) were investigated by XRPD.

Row | Compound | Biopharmaceutics Classification System (BCS) class (BCS / DCS classification) | Developability Classification System (DCS) class (BCS / DCS classification) | Blood brain barrier penetration [1] | XRPD ([2]; slow cooling with Form B seeds, Acetone) | Result ([2]; Acetone/water (v:v = 1:1)) | Result ([2]; Acetone, placed at −20° C. for 11 days) | Result ([2]; Acetonitrile/water (v:v = 1:1), placed at −20° C. for 11 days) | Result ([2]; Acetonitrile, placed at −20° C. for 11 days) | Result ([2]; DCM) | Result ([2]; Ethanol, placed at −20° C. for 10 days) | Result ([2]; Ethyl acetate, placed at −20° C. for 11 days) | Result ([2]; Methyl ethyl ketone, placed at −20° C. for 11 days) | Result ([2]; THF) | Result ([2]; THF/water (v:v = 1:1), placed at −20° C. for 11 days)
1 | CCN(C)S(=O)(=O)Nc1ccc(F)c(Oc2ccc3ncn([C@H]4COC5(CCN(C(=O)CC6(O)CCN(c7cc8c(cc7F)c(N7CCC(=O)NC7=O)nn8C)CC6)CC5)C4)c(=O)c3c2)c1C#N [Compound 1, (3R)-3-[6-[2-cyano-3-[[ethyl(methyl)sulfamoyl]amino]-6-fluorophenoxy]-4-oxoquinazolin-3-yl]-8-[2-[1-[3-(2,4-dioxo-1,3-diazinan-1-yl)-5-fluoro-1-methylindazol-6-yl]-4-hydroxypiperidin-4-yl]acetyl]-1-oxa-8-azaspiro[4.5]decane] | Class II | Class IIb | high level of blood brain barrier penetration | – | – | – | – | – | – | – | – | – | – | –
2 | CCN(C)S(=O)(=O)Nc1ccc(F)c(Oc2ccc3ncn([C@H]4COC5(CCN(C(=O)CC6(O)CCN(c7cc8c(cc7F)c(N7CCC(=O)NC7=O)nn8C)CC6)CC5)C4)c(=O)c3c2)c1C#N [Compound 1 Form A] | – | – | – | Form B | Sticky material | for 11 days: clear solution | for 11 days: clear solution | for 11 days: clear solution | Sticky material | for 10 days: few solids | for 11 days: clear solution | for 11 days: clear solution | Oil material | for 11 days: clear solution
